Experimental findings from the METLIN SMRT retention time set (Domingo-Almenara et al. 2019) are described below.

Each structure is given as a SMILES string.

A short description of this data set: gradient 5% acetonitrile 3 min, to 50% in 2 min, to 85% in 15 min, held 3 min, 100 µL/min. As to conditions: column: Zorbax Extend-C18 2.1 x 50 mm; eluents: water / acetonitrile, 0.1% formic acid. A digest of the protocol:
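Pure standards were run in mixtures of ~100 molecules by HPLC coupled to a quadrupole time-of-flight mass spectrometer. The column was a Zorbax Extend-C18 (2.1 × 50 mm, 1.8 μm) at 100 μL/min, with water and acetonitrile each containing 0.1% formic acid, in positive and negative ionization mode. Dead and dwell volumes were 40 μL and 900 μL. Retention time was taken from computationally picked adduct peaks, each manually inspected, with data collected over 3 months.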
The molecule `CC(C)c1noc(-c2ccnc(-n3cnc(C(=O)N(C)C4CCCCC4)c3)c2)n1` showed an RP-LC retention time of 622 s.

Turning to `COc1cc(C(=O)N2CCC(c3nc4cccnc4n3C)C2)ccc1C` (centres undefined), the RP-LC retention time was found to be 683 s. The result for `Cc1ccsc1C(=O)N1CCOc2ccc(N3CCOCC3)cc2C1` reads 762 s; that for `O=C(c1cccc(F)c1)N1CCC2(CC1)N=C(c1ccc(Cl)cc1)NO2`, 800 s; that for `N#Cc1ccc(C(=O)Nc2cnn(-c3ncc(N4CCCCC4)cn3)c2)cc1`, 848 s. Molecule `COC(=O)C1=CN(c2cccc(Cl)c2)c2ccc(F)cc2S1(=O)=O` showed an RP-LC retention time of 895 s.

In turn, `Cc1nsc2ncc(C(=O)N3CCOCC3)c(N3CCC(C(=O)Nc4ccc(F)cc4Cl)CC3)c12` yielded an RP-LC retention time of 811 s.

As for `CCC1Oc2ccc(S(=O)(=O)N3CCC(C(=O)N4CCc5ccccc54)CC3)cc2NC1=O` (centres undefined), the RP-LC retention time is 917 s. The molecule `CCOC(=O)C1=C(CN2CCN(C(C)CC)CC2)NC(=O)NC1c1ccccc1` (centres undefined) showed an RP-LC retention time of 625 s. The result for `CCN(CC)S(=O)(=O)c1ccc2c(c1)N(CC(=O)NCC1COCCO1)C(=O)C1CCCCN21` (centres undefined) reads 769 s; that for `COc1ccc(CNC2=NCCNC23CCN(S(=O)(=O)c2ccc(C(C)(C)C)cc2)CC3)cc1`, 844 s; that for `Cc1ccc(NC(=O)CCNc2cnc3cnccn23)cc1Cl`, 590 s. For `Cc1nc(NC(=O)c2ccc(OCc3nc(C4CC4)cs3)cc2)sc1C` the value was 969 s; for `CN(C)C(CNC(=O)C(=O)NCCC1=CCCCC1)c1ccsc1` (centres undefined), 590 s; for `CCC(C)C(NC(=O)c1cccc(N(C)C)c1)C(=O)Nc1nc2ccccc2[nH]1` (centres undefined), 703 s. For `CCCCN(C)c1ccc(NC(=O)Cc2cccs2)c(C(=O)O)c1` the value was 759 s; for `O=C(NCc1cc(F)ccc1F)C1CCN(c2cnc(N3CCCC3)nc2)CC1`, 667 s. `COc1ccc(Cl)cc1N1C=C(C#N)S(=O)(=O)c2ccc(F)cc21` registered an RP-LC retention time of 968 s. The molecule `O=C1CCCc2cc(S(=O)(=O)N3CCC(C(=O)NC4CCCCCCC4)CC3)ccc2N1` gave an RP-LC retention time of 814 s. The result for `CC(C)Cn1cc(S(=O)(=O)NC2CCCCCC2)c2cccnc21` reads 1060 s; that for `Cc1ccn2c(NC(=O)CC(C)(C)C)c(-c3ccc(F)cc3)nc2c1`, 669 s. The result for `COc1ccc(-c2nc3cnccn3c2Nc2ccc3c(c2)OCCO3)cc1OC` reads 717 s; that for `COc1ccc(NC(=O)Cn2cnc3nc(N4CCC(C)CC4)ncc3c2=O)cc1Cl`, 834 s. For `CSc1cccc(NC(=O)C2CCN(S(=O)(=O)c3cn(C)cn3)CC2)c1`, the RP-LC retention time was found to be 736 s.

In turn, `COc1ccc(NS(=O)(=O)c2ccc3c(c2)CCCC(=O)N3)cc1Cl` displayed an RP-LC retention time of 738 s. In the case of `CCOc1ccc(-c2noc(Cc3nnc(-c4ccc(F)cc4)o3)n2)cc1`, the RP-LC retention time came to 1050 s. The result for `CCC(C)NC(=O)C1CCCN(c2nccnc2Sc2ccc(C)cc2)C1` (centres undefined) reads 1320 s. `O=C(c1cccs1)N1CCCC(c2nnc(-c3ccccc3)o2)C1` (centres undefined) displayed an RP-LC retention time of 805 s. The result for `COc1ccc(C2(C(=O)NCC3Cn4cccc4C(=O)N3C)CC2)cc1` (centres undefined) reads 707 s; that for `COc1ccc(-c2csc(NC(=O)CCn3c(=O)oc4ccccc43)n2)cc1`, 940 s; that for `COC(=O)c1ccc(C(=O)OC)c(NS(=O)(=O)CCOc2ccccc2)c1`, 968 s. For `CCOC(=O)c1ccccc1NC(=O)CSc1cc(N2CCCC2)ncn1` the value was 914 s; for `CCOC(=O)CCCn1c(=O)c2cccn2c2ccc(F)cc21`, 847 s. The result for `COc1ccc(-c2nnc(-c3ccc(Cl)c(S(=O)(=O)N4CCCC4)c3)o2)cc1` reads 1060 s; that for `Cc1ccc(CN(Cc2ccc(-c3ccccc3S(=O)(=O)NC#N)cc2)C(=O)c2ccccc2Cl)cc1`, 1060 s. Take `CCc1cc(=O)n(CC(=O)N(C)c2cccc(C)c2)c(N2CCOCC2)n1`: the RP-LC retention time came to 764 s. In turn, `O=C(Cn1c(=O)nc(N2CCCCC2)c2ccccc21)Nc1ccc2c(c1)OCCO2` showed an RP-LC retention time of 728 s. `COCC1CN(C2CCC2)CC12CCN(C(=O)c1cccs1)CC2` (centres undefined): the RP-LC retention time stood at 602 s. For `Cc1cc(Cl)ccc1NC(=O)CC1COc2ccccc2NC1=O` (centres undefined) the value was 770 s; for `CC(C)(C)c1csc(-c2csc(S(=O)(=O)Nc3ccc(Cl)cc3F)c2)n1`, 1300 s; for `O=C(NC1CCCC1)c1c[nH]c2ncccc12`, 625 s. The molecule `CSc1ccc(NC(=O)N2CCC(c3nc(C(=O)N4CCOCC4)c(C)o3)CC2)cc1` had an RP-LC retention time of 726 s. Molecule `CCCC(NC(=O)c1ccc(N(C)C)cc1)C(=O)Nc1nc2ccccc2[nH]1` (centres undefined) registered an RP-LC retention time of 706 s. Consider `O=C(c1csc(S(=O)(=O)N2CCC(C(=O)N3CCCCC3)CC2)c1)N1CCOCC1`, for which the RP-LC retention time came to 689 s. The result for `CCOc1cc(CNC(=O)c2ccc3c(c2)N(C)C(=O)c2ccccc2O3)cc(OCC)c1OCC` reads 973 s; that for `O=C(Nc1cccc(-c2cn3cccnc3n2)c1)c1ccc(Cl)cc1`, 739 s; that for `CC(=O)Nc1onc(C)c1-c1ccc(C)c(S(=O)(=O)NCCc2ccc(S(N)(=O)=O)cc2)c1`, 663 s. On to `CCCC(=O)Nc1ccc(-n2cnc(C(=O)N3CCN(c4cccc(C)c4C)CC3)c2)nc1`, for which the RP-LC retention time worked out at 929 s. For `CCCc1ccc(S(=O)(=O)N2CCC3(CC2)NCCN=C3NCc2cccc(C)c2)cc1` the value was 870 s; for `CC(C)CCNC(=O)C1(C)Cn2nc(C(=O)NCc3ccccc3Cl)cc2C(=O)N1C` (centres undefined), 814 s; for `CCOC(=O)c1nc(Nc2ccccc2OCC)c2ccccc2n1`, 942 s. Turning to `O=C(NCCn1cnc2cc(C(=O)N3CCCC3)ccc21)Nc1cccc(Br)c1`, the RP-LC retention time was 623 s. As to `Cc1cc(C#N)cc(C)c1Oc1nc(Nc2ccc(C#N)cc2)nc(N)c1Br`, the RP-LC retention time was determined as 1100 s. `O=C1COc2ccc(S(=O)(=O)N3CCC(C(=O)Nc4ccccc4)CC3)cc2N1` registered an RP-LC retention time of 759 s. Consider `CNC(=O)c1cc(N2CCCC2)nc2c(C)cccc12`, for which the RP-LC retention time turned out to be 567 s. With `CCc1ccc(Nc2nc(C(=O)NCCc3cccs3)nc3ccccc23)cc1`, the RP-LC retention time amounted to 907 s. In turn, `O=c1c2cc(-c3ccc(F)cc3)nn2ccn1Cc1nc(-c2cccc(F)c2)no1` came in with an RP-LC retention time of 1060 s. The result for `CCOC(=O)c1nc(NCCCN2CCN(c3cc(C)ccc3C)CC2)c2ccccc2n1` reads 715 s; that for `O=C(C1=NN(Cc2ccc(Cl)cc2)c2ccccc2S1(=O)=O)N1CCOCC1`, 854 s. The result for `CCc1c(CN2CCN(c3ccccn3)CC2)csc1C` reads 596 s.

`CCN(CC)C(=O)c1ccc(-c2nc3cc(NS(=O)(=O)c4cc(F)ccc4F)ccc3n2C)cc1` had an RP-LC retention time of 704 s. The result for `CCOC(=O)c1noc2ncnc(Nc3ccccc3OCC)c12` reads 971 s; that for `CCC(=O)N1CCc2cc(N3CC(C(=O)NCc4ccc(F)cc4)CC3=O)ccc21` (centres undefined), 725 s. For `COc1ccc2[nH]cc(CCNC(=O)c3cc(S(=O)(=O)N4CCSCC4)ccc3Cl)c2c1` the value was 880 s. `O=C(Cc1ccccc1Cl)NC(c1ccccc1)c1nnc(N2CCCCC2)o1` (centres undefined) came in with an RP-LC retention time of 899 s. The result for `O=C1CC(c2nc3ccccc3n2CCN2CCOCC2)CN1Cc1ccc(F)cc1` (centres undefined) reads 612 s. For `COCCCNC(=O)CCc1nnc2ccc(-c3ccc(C)c(C)c3)nn12`, the RP-LC retention time is 718 s. As for `Cc1ccc(NC(=O)N2CCC(n3c(-c4ccoc4)nc4cccnc43)C2)cc1C` (centres undefined), the RP-LC retention time is 762 s.

In the case of `CCc1cccc(NC(=O)C2CCCN(S(=O)(=O)c3cn(C(C)C)cn3)C2)c1` (centres undefined), the RP-LC retention time was 893 s. The result for `COc1ccc(CNC2=NCCNC23CCN(S(=O)(=O)c2cc(C)ccc2C)CC3)cc1` reads 754 s; that for `Cc1nc(Cn2cccc2C(=O)Nc2ccc(C(C)C)cc2)no1`, 982 s. For `COCCc1noc(C2CN(C(=O)c3cn(C)cn3)C2)n1`, the RP-LC retention time amounted to 555 s. Turning to `CC1CCN(c2ncc(C(=O)O)c(-c3ccncc3)n2)CC1`, the RP-LC retention time was determined as 683 s. With `Cc1cc(C(F)(F)F)nn1CC(=O)N1CCc2nn(CC3CC3)c(=O)n2CC1`, the RP-LC retention time was determined as 712 s. For `Cc1nnsc1C(=O)N1CCC2(CC1)OCCN2S(=O)(=O)c1ccc(Cl)cc1` the value was 817 s.

`CCNC(=O)c1nc(-c2ccnc(N3CCOCC3)c2)no1` yielded an RP-LC retention time of 644 s.

On to `COc1ccc(CCS(=O)(=O)NCC2CCN(Cc3cccs3)CC2)cc1`, for which the RP-LC retention time was found to be 564 s. As to `CC(C)(NC(=O)c1cnccn1)c1nc2c(c(C(N)=O)n1)OCO2`, the RP-LC retention time turned out to be 598 s. The result for `O=C(NCCNC(=O)Nc1cccc(Cl)c1)Nc1cccc(Cl)c1` reads 782 s.
